Experimental data as given in patent publication US9497972B2, “Compositions comprising a biological control agent and an insecticide” (priority 2012, dated 2016).

How the values were obtained:
Assay type in all cases: in vivo
Myzus persicae [1] = assay: Myzus persicae spray test (MYZUPE), Example A: Chinese cabbage leaf-disks
Description: (§1) For all examples efficiencies of the compositions comprising at least one BCA and at least one specific insecticide has been determined by the “Colby-formula”: The expected efficacy of a given combination of two compounds is calculated as follows (see Colby, S. R., “Calculating Synergistic and antagonistic Responses of Herbicide Combinations”, Weeds 15, pp. 20-22, 1967):
(§2) If • X is the efficacy expressed in % mortality of the untreated control for test compound A at a concentration of m ppm respectively m g/ha, • Y is the efficacy expressed in % mortality of the untreated control for test compound B at a concentration of n ppm respectively n g/ha, • E is the efficacy expressed in % mortality of the untreated control using the mixture of A and B at m and n ppm respectively m and n g/ha, then is E=X+Y−(X×Y/100)
(§3) If the observed insecticidal efficacy of the combination is higher than the one calculated as “E”, then the combination of the two compounds is more than additive, i.e., there is a synergistic effect.
Myzus persicae—Spray Test (MYZUPE)
(§4) To produce a suitable preparation of active compound, 1 part by weight of active compound is mixed with the stated amount of solvent and emulsifier, and the concentrate is diluted with emulsifier-containing water to the desired concentration. To produce a suitable preparation of a spore suspension the spores are diluted with emulsifier-containing water to the desired concentration.
Chinese cabbage (Brassica pekinensis) leaf-disks infected with all instars of the green peach aphid (Myzus persicae), are sprayed with a preparation of the active ingredient of the desired concentration.
After the specified period of time, mortality in % is determined. 100% means all aphids have been killed; 0% means none of the aphids have been killed. The mortality values determined thus are recalculated using the Colby-formula (see above).

Phaedon cochleariae = Phaedon cochleariae spray test, Example C: Chinese cabbage leaf-disks
Description: as §1, §2, §3
Phaedon cochleariae—Spray Test
as §4
Chinese cabbage (Brassica pekinensis) leaf-disks are sprayed with a preparation of the active ingredient of the desired concentration. Once dry, the leaf disks are infested with mustard beetle larvae (Phaedon cochleariae).
After the specified period of time, mortality in % is determined. 100% means all beetle larvae have been killed and 0% means none of the beetle larvae have been killed. The mortality values determined thus are recalculated using the Colby-formula (see above).

Myzus persicae [2] = assay: Myzus persicae spray test, Example E: cabbage leaves (Brassica oleracea); settings: 1 ppm
Description: as §1, §2, §3
Myzus persicae—Spray Test […]
(§5) After the specified period of time, mortality in % is determined. […] The mortality values determined thus are recalculated using the Colby-formula (see above).

Spodoptera frugiperda = Spodoptera frugiperda spray test, Example D: maize leaf sections
Description: as §1, §2, §3
Spodoptera frugiperda—Spray Test
as §4, with “preparation of the active compound,” for “preparation of active compound,”
Maize (Zea mais) leaf sections are sprayed with a preparation of the active ingredient of the desired concentration. Once dry, the leaf sections are infested with fall armyworm larvae (Spodoptera frugiperda).
After the specified period of time, mortality in % is determined. 100% means all caterpillars have been killed and 0% means none of the caterpillars have been killed. The mortality values determined thus are recalculated using the Colby-formula (see above).

Tetranychus urticae = Tetranychus urticae spray test, OP-resistant, Example B: French beans
Description: as §1, §2, §3
Tetranychus urticae—Spray Test, OP-Resistant […]
as §5

In the case of `CN/C(=N\[N+](=O)[O-])NCc1cnc(Cl)s1` [Clothianidin (I142), Clothianidin], the “Efficacy in % after 1^d” value (Myzus persicae [1]; 0.8 g/ha) is reported as 70%, the “Efficacy in % after 6^d” value (Myzus persicae [1]; 4 g/ha) is reported as 70% and the “Efficacy in % after 2^d” value (Phaedon cochleariae; 20 g ai/ha) is reported as 0%.
In the case of `O=[N+]([O-])NC1=NCCN1Cc1ccc(Cl)nc1` [Imidacloprid (I144), Imidacloprid], the “Efficacy in % after 6^d” value (Myzus persicae [1]; 0.032 g/ha) is reported as 0%, the “Efficacy in % after 1^d” value (Myzus persicae [1]; 0.16 g/ha) is reported as 0% and the “Efficacy in % after 1^d” value (Myzus persicae [1]; 0.4 g/ha) is reported as 70%.
With `CC(c1ccc(C(F)(F)F)nc1)S(C)(=O)=NC#N` (centres unmarked) [Sulfoxaflor (I149), Sulfoxaflor] the “Efficacy in % after 6^d” value (Myzus persicae [1]; 0.08 g/ha) was 70% and the “Efficacy in % after 6^d” value (Myzus persicae [1]; 0.4 g/ha) was 70%.
In the case of `N#C/N=C1\SCCN1Cc1ccc(Cl)nc1` [Thiacloprid (I146), Thiacloprid], the “Efficacy in % after 6^d” value (Myzus persicae [1]; 0.16 g/ha) is reported as 0%, the “Efficacy in % after 6^d” value (Myzus persicae [1]; 0.8 g/ha) is reported as 70% and the “Efficacy in % after 1^d” value (Myzus persicae [2]) is reported as 35%.
In the case of `CN1COCN(Cc2cnc(Cl)s2)/C1=N\[N+](=O)[O-]` [Thiamethoxam (I147), Thiamethoxam], the “Efficacy in % after 6^d” value (Myzus persicae [1]; 0.16 g/ha) is reported as 0%, the “Efficacy in % after 1^d” value (Myzus persicae [1]; 0.4 g/ha) is reported as 0% and the “Efficacy in % after 1^d” value (Myzus persicae [1]; 2 g/ha) is reported as 0%.
With Spinetoram [Spinetoram (I150)] the “Efficacy in % after 6^d” value (Phaedon cochleariae; 0.16 g ai/ha) was 0%, the “Efficacy in % after 6^d” value (Phaedon cochleariae; 0.8 g ai/ha) was 33% and the “Efficacy in % after 2^d” value (Spodoptera frugiperda; 0.16 g ai/ha) was 67%.
Spinosad [Spinosad (I151)] was tested, and the “Efficacy in % after 6^d” value (Myzus persicae [1]; 20 g/ha) was 0%, the “Efficacy in % after 6^d” value (Tetranychus urticae; 4 g ai/ha) was 0% and the “Efficacy in % after 2^d” value (Tetranychus urticae; 20 g ai/ha) was 50%. The “Efficacy in % after 6^d” value (Phaedon cochleariae; 4 g ai/ha) was 0%, the “Efficacy in % after 6^d” value (Spodoptera frugiperda; 0.16 g ai/ha) was 0% and the “Efficacy in % after 2^d” value (Spodoptera frugiperda; 0.8 g ai/ha) was 0%.
